The target in one data set is T1, A2A receptor (Homo sapiens, UniProt P29274).
T1 construct: host or cells: HEK-293
The data set can be described thus: Inhibition of cAMP production in HEK cells (LANCE Ultra cAMP, TR-FRET). The format is cell-based. As to conditions: HEK-293 cells with stable transfection of A2A receptor. As to the method:
When the A2A receptor is activated, is induces the production of cAMP. The present assay thus aims at showing that cAMP production is inhibited in HEK cells in response to their exposure to the compounds of the invention. HEK-293 cells with a stable transfection of A2A receptor were bought from PerkinElmer® (#ES-011-C). Cells were cultured in EMEM medium (Lonza, #BE12-611F) supplemented with 10% FBS (Lonza, #DE14-801F) and 200 μg/mL of G418 (Tocris, #4131) at 37° C. and 5% CO2. Fresh media without the selection marker was added on the day immediately before the experiment to stop selection pressure. cAMP inhibition and antagonist IC50 determination were accessed using the LANCE® Ultra cAMP Kit from PerkinElmer® (#TRF0262) on white half area 96 well plates (PerkinElmer®, #6005560). The assays were conducted in two different stimulation buffers: • a) normal with 1×HBSS (Gibco®, #141750-95), 5 mM HEPES (Lonza, #BE17-737E), 0.1% BSA and 25 μM Rolipram and • b) HSA with 1×HBSS (Gibco®, #141750-95), 5 mM HEPES (Lonza, #BE17-737E), 2% Human Serum Albumin (Sigma-Aldrich®—A1653), 30 μM of EHNA (Tocris—#1261) and 100 μM Rolipram. Stimulation buffer b) mimics the human situation by increasing the amount of albumin present in the assay. Compounds of the present invention were diluted 100× in either of the buffers depending on the assay performed. A total of 1000 cells per well were pre-incubated for 10 minutes with the compounds of the present invention before adding the corresponded EC80 of A2A agonist (3 nM of NECA in normal buffer) or 5 μM of Adenosine (in HAS buffer) for a total reaction time of 30 minutes. The total volume of the reaction was 20 μl (10 μl of cells, 5 μl of antagonist and 5 μl of agonist). The reaction was finalized by adding 10 μl of 4×EU-cAMP tracer working solution and 10 μl of 4× ULight-anti-cAMP working solution. The TR-FRET signal was measured after 1 hour using a Spectramax Paradigm (Molecular Devices).

A short description of data set [1]: Permeability and efflux in Caco-2 cells. In kind it is in vitro ADME. As to conditions: human, Caco-2 monolayer, bidirectional transport, pH 7.4. As to the method: The transport buffer (TB, pH 7.4) used in the study is Hank's Buffered Saline Solution (HBSS, Gibco, Cat #14025-076) with 10 mM HEPES at pH 7.4. Fetal bovine serum (FBS) (Corning, Cat #Corning-35-076-CV, or other vendors), Minimum Essential Media (MEM) (Gibco, Cat #41500-034) as well as its supplements are purchased from Invitrogen (Carlsbad, Calif., USA). Caco-2 cell line (Cat #HTB-37) is purchased from the ATCC (Rockville, Md., USA). The organic solvents used in the study are purchased from Sigma Aldrich (St. Louis, Mo., USA). For reference compounds (fenoterol, propranolol and digoxin) and test compounds, 0.4 mM intermediate solutions are prepared by diluting 10 mM or other appropriate concentrations of DMSO stock solutions with DMSO. 2 μM dosing solutions for reference compounds and test compounds are prepared by spiking the appropriate volume of intermediate solution to TB with and without 1 μM Zosuquidar. The final concentration of DMSO is no more than 1% (v/v). Caco-2 cells are grown in MEM supplemented with 2 mM L-glutamine, 10% FBS, 100 U/mL penicillin-G and 100 μg/mL streptomycin. The cells are incubated at 37° C., 5% CO2 and relatively saturated humidity. After reaching 80-90% confluency, the cells are gently detached with 0.05% trypsin-EDTA solution. Cells at passage 30-50 are seeded on the 96-well BD insert system (Cat #359274) at the density of 1×10^5 cells/cm2 and cultured for 21-28 days with medium changed every 4-5 days. TB and dosing solutions were pre-warmed to 37° C. before transport assay. The cell monolayer was washed twice with HBSS containing 10 mM HEPES. For A-B (apical to basolateral) directional transport assay, 75 μL dosing solution is added to the apical well. Fill each basolateral well with 250 μL TB. For B-A (basolateral to apical) directional transport assay, 250 μL of dosing solution is added to the basolateral well after filling each apical well with 75 μL TB. Test compound(s) and digoxin are tested at 2 μM in the presence or absence of 1 μM zosuquidar bidirectionally in duplicate. Atenolol and propranolol are tested at 2 μM in the absence of zosuquidar in A to B direction in duplicate. The plates are incubated for 120 minutes at 37° C. with 5% C02 and saturated humidity. The time zero samples are generated by mixing 50 μL initial dosing solution of test compound or reference compound with 100 μL TB and 250 μL quench solution (acetonitrile (ACN) or other appropriate solvent with internal standard(s), based on the bioanalytical method development). At 120 minutes, 150 μL of solution is collected from each A-B receiver well followed by addition of 250 μL quench solution to get A-B receiver sample. And for other samples (A-B donor, B-A donor and receiver), 50 μL of solution is collected from each corresponding well followed by addition of 250 μL quench solution and 100 μL TB. All samples are vortex-mixed and centrifuged at 3220 g for 20 minutes. Subsequently, supernatant is diluted with ultra pure water for LC-MS/MS analysis. The concentrations of test compound in all samples are determined by LC-MS/MS and expressed as peak area ratio of analyte to internal standard. The concentration of samples is expressed using the peak area ratio of Analyte to Internal Standard (Analyte/IS). The apparent permeability coefficient (Papp) is calculated using the following equation: Papp=VR/(Area*Time)*(CR/C0) wherein VR is the solution volume in the receiver chamber (0.075 mL on the apical side, 0.25 mL on the basolateral side); Area is the surface area for the transport, i.e. 0.0804 cm2 for the area of the monolayer; Time is incubation time, expressed in seconds, 2 h=2×3600 s; C0 is the initial concentration in the donor chamber; CR is the final concentrations in receiver chamber. The efflux ratio is calculated using the following equation: Efflux ratio=[…]) where Papp (A-B) and Papp (B-A) are the Papp values of compound in Apical to Basolateral and Basolateral to Apical directional transport, respectively.
In general terms: Passage across Caco-2 layers is used to estimate intestinal permeability.

[2] abbreviates: HSA stimulation buffer, 5 μM Adenosine as agonist, 2.0% HSA, read-out: IC50 (nM) (5 μM Adenosine as agonist, 2.0% HSA).
[3] abbreviates: normal stimulation buffer, 3 nM NECA as agonist, 0.1% BSA, read-out: IC50 (nM) (3 nM NECA as agonist, 0.1% BSA).

Where two headings read alike, the source gives them in different places.

T1 sequence (P29274 whole entry): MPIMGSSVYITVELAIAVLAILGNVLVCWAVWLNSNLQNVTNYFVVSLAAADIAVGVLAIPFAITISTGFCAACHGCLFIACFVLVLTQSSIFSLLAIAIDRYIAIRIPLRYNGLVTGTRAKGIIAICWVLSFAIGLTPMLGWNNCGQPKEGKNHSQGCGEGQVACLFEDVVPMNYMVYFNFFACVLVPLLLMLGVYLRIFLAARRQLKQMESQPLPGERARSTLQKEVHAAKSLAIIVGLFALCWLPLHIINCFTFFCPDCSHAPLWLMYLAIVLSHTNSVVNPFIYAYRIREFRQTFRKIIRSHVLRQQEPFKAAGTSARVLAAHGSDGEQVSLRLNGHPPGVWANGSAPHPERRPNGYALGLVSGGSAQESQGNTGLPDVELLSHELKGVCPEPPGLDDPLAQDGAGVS

A word on the IC50: it is the concentration needed to halve the response being measured. Turning to `CN(CCN1CCN(c2cc(OCC[S@+](C)[O-])c(F)cc2F)CC1)c1nc(N)n2nc(-c3ccco3)nc2n1` [Compound 1, (S)—N5-(2-(4-(2,4-difluoro-5-(2-(methylsulfinyl)ethoxy)phenyl)piperazin-1-yl)ethyl)-2-(furan-2-yl)-N5-methyl-[1,2,4]triazolo[1,5-a][1,3,5]triazine-5,7-diamine], the IC50 came to 33 nM on A2A receptor (setting [2]) and 0.4 nM at A2A receptor (setting [3]).

For `CN(CCN1CCN(c2cc(OCC[S@@+](C)[O-])c(F)cc2F)CC1)c1nc(N)n2nc(-c3ccco3)nc2n1` [Compound 2, (R)—N5-(2-(4-(2,4-difluoro-5-(2-(methylsulfinyl)ethoxy)phenyl)piperazin-1-yl)ethyl)-2-(furan-2-yl)-N5-methyl-[1,2,4]triazolo[1,5-a][1,3,5]triazine-5,7-diamine], the IC50 on A2A receptor (setting [2]) was determined as 28 nM; on A2A receptor (setting [3]), 0.6 nM.

A word on the efflux ratio: it is the permeability from basolateral to apical divided by that in the opposite direction, in the common usage. On to `CNC(=O)c1cc(N2CCN(CCn3c(=O)n(C)c4c3nc(N)n3nc(-c5ccco5)nc43)CC2)c(F)cc1F` [Compound 3, 5-(4-(2-(5-amino-8-(furan-2-yl)-1-methyl-2-oxo-1H-[1,2,4]triazolo[5,1-i]purin-3(2H)-yl)ethyl)piperazin-1-yl)-2,4-difluoro-N-methylbenzamide], for which, in data set [1], the efflux ratio at 120 min, 2 μM came to 53. For the same compound, the IC50 came out at 176 nM on A2A receptor (setting [2]) and 0.1 nM at A2A receptor (setting [3]).

For `CNC(=O)c1cc(N2CCN(CCn3ncc4c3nc(N)n3nc(-c5ccco5)nc43)CC2)c(F)cc1F` [Compound 4, 5-(4-(2-(5-amino-2-(furan-2-yl)-7H-pyrazolo[4,3-e][1,2,4]triazolo[1,5-c]pyrimidin-7-yl)ethyl)piperazin-1-yl)-2,4-difluoro-N-methylbenzamide], the efflux ratio at 120 min, 2 μM in data set [1] came to 8. The IC50 on A2A receptor (setting [2]) came to 150 nM; on A2A receptor (setting [3]), 0.3 nM.

Regarding `CN(CCN1CCN(c2cc(OCCS(C)(=O)=O)c(F)cc2F)CC1)c1nc(N)n2nc(-c3ccco3)nc2n1` [Compound 5, N5-(2-(4-(2,4-difluoro-5-(2-(methylsulfonyl)ethoxy)phenyl)piperazin-1-yl)ethyl)-2-(furan-2-yl)-N5-methyl-[1,2,4]triazolo[1,5-a][1,3,5]triazine-5,7-diamine], the efflux ratio at 120 min, 2 μM in data set [1] was greater than 340. The IC50 on A2A receptor (setting [2]) is 41 nM; at A2A receptor (setting [3]), 0.6 nM.

Regarding `CS(=O)(=O)CCOc1cc(N2CCN(CCNc3nc(N)n4nc(-c5ccco5)nc4n3)CC2)c(F)cc1F` [Compound 6, N5-(2-(4-(2,4-difluoro-5-(2-(methylsulfonyl)ethoxy)phenyl)piperazin-1-yl)ethyl)-2-(furan-2-yl)-[1,2,4]triazolo[1,5-a][1,3,5]triazine-5,7-diamine], the IC50 was 63 nM at A2A receptor (setting [2]) and 0.9 nM on A2A receptor (setting [3]).

Take `Cn1c(=O)n(CCN2CCN(c3cc(OCC[S@+](C)[O-])c(F)cc3F)CC2)c2nc(N)n3nc(-c4ccco4)nc3c21` [Compound 7, (S)-5-amino-3-(2-(4-(2,4-difluoro-5-(2-(methylsulfinyl)ethoxy)phenyl)piperazin-1-yl)ethyl)-8-(furan-2-yl)-1-methyl-1H-[1,2,4]triazolo[5,1-i]purin-2-one]: the efflux ratio at 120 min, 2 μM in data set [1] is greater than 500. The IC50 on A2A receptor (setting [2]) stood at 64 nM; at A2A receptor (setting [3]), 0.3 nM.

Turning to `Cn1c(=O)n(CCN2CCN(c3cc(OCC[S@@+](C)[O-])c(F)cc3F)CC2)c2nc(N)n3nc(-c4ccco4)nc3c21` [Compound 8, (R)-5-amino-3-(2-(4-(2,4-difluoro-5-(2-(methylsulfinyl)ethoxy)-phenyl)piperazin-1-yl)ethyl)-8-(furan-2-yl)-1-methyl-1H-[1,2,4]triazolo[5,1-i]purin-2-one], in data set [1], the efflux ratio at 120 min, 2 μM is greater than 400. The IC50 stood at 70 nM on A2A receptor (setting [2]) and 0.3 nM at A2A receptor (setting [3]).

As to `Cn1c(=O)n(CCN2CCN(c3cc(OCCS(C)(=O)=O)c(F)cc3F)CC2)c2nc(N)n3nc(-c4ccco4)nc3c21` [Compound 9, 5-amino-3-(2-(4-(2,4-difluoro-5-(2-(methylsulfonyl)ethoxy)phenyl)piperazin-1-yl)ethyl)-8-(furan-2-yl)-1-methyl-1H-[1,2,4]triazolo[5,1-i]purin-2(3H)-one], in data set [1], the efflux ratio at 120 min, 2 μM is greater than 300. Moreover, the concentration for half-maximal inhibition (IC50) at A2A receptor (setting [2]) was 104 nM; at A2A receptor (setting [3]), 0.5 nM.

Turning to `Nc1nc(NCCN2CCN(c3cc(N4CC[S+]([O-])CC4)c(F)cc3F)CC2)nc2nc(-c3ccco3)nn12` [Compound 15, 4-(5-(4-(2-((7-amino-2-(furan-2-yl)-[1,2,4]triazolo[1,5-a][1,3,5]triazin-5-yl)amino)ethyl)piperazin-1-yl)-2,4-difluorophenyl)thiomorpholine 1-oxide], the IC50 worked out at 81 nM on A2A receptor (setting [2]) and 1.7 nM at A2A receptor (setting [3]).

Take `C[S@@+]([O-])c1cc(N2CCN(CCNc3nc(N)n4nc(-c5ccco5)nc4n3)CC2)c(F)cc1F` [Compound 16, (R)—N5-(2-(4-(2,4-difluoro-5-(methylsulfinyl)phenyl)piperazin-1-yl)ethyl)-2-(furan-2-yl)-[1,2,4]triazolo[1,5-a][1,3,5]triazine-5,7-diamine]: the results for the IC50 on A2A receptor (setting [2]) and on A2A receptor (setting [3]) were 73 nM and 7.4 nM, respectively.

As to `C[S@+]([O-])c1cc(N2CCN(CCNc3nc(N)n4nc(-c5ccco5)nc4n3)CC2)c(F)cc1F` [Compound 17, (S)—N5-(2-(4-(2,4-difluoro-5-(methylsulfinyl)phenyl)piperazin-1-yl)ethyl)-2-(furan-2-yl)-[1,2,4]triazolo[1,5-a][1,3,5]triazine-5,7-diamine], the IC50 was found to be 201 nM at A2A receptor (setting [2]) and 1.8 nM on A2A receptor (setting [3]).

The values are drawn from patent US11427594B2, “Non brain penetrant A2A inhibitors and methods for use in the treatment of cancers” (iTeos Belgium SA, priority 2018, dated 2022).
